Data from patent US20220220152A1, “BIVALENT ANTAGONISTS OF INHIBITORS OF APOPTOSIS PROTEINS” (Hepagene Therapeutics (HK) Limited, priority 2019, published 2022).

Key:
XIAP-BIR3 = target: T1, XIAP-BIR3 (Homo sapiens, UniProt P98170); experiment: XIAP-BIR3 fluorescence polarization binding assay; conditions: FP, probe AbuRPFK-5FAM (SM5F) 5 nM, XIAP-BIR3 40 nM, 60 min at 25° C.
T1 construct: XIAP-BIR3; purchased Reaction Biology APT-11-374
Description: (§1) IAPs are one main cause of cancer development and may result from overexpression of anti-apoptotic proteins. This protocol establishes three binding assays for […] Bir3 domain, cIAP1 and cIAP2 using FP (fluorescence polariation) technology. The fluorescence probe used is a synthetic peptide conjugated to 5-carboxyfluorescein (AbuRPFK-5FAM). The fluorescence polarization value (mP) was detected by Envision, which was used to reflect the binding degree of protein and fluorescent marker.
(§2) • a. Prepare 100 times of the final cpd concentration in appropriate tube and transfer 5 uL cpd to 45 μL 1× reaction buffer with 10% DMSO • b. The final reference cpd concentration is 10000, 3333.3, 1111.1, 370.4, 123.4, 41.2, 13.7, 4.57, 1.52, 0.51, 0.17 and 0 nM. So the 100 times of the concentration is 1000, 333.3, 111.1, 37.04, 12.34, 4.12, […], 0.15, 0.05, 0.017 and 0 μM. The final test cpds concentration is 3333.3, 1111.1, 370.4, 123.4, 41.2, 13.7, 4.57, 1.52, 0.51, 0.17, 0.057 and 0 nM. So the 100 times of the concentration is 333.3, 111.1, 37.04, 12.34, 4.12, […], 0.15, 0.05, 0.017, 0.0057 and […] • c. Add 8 μL/well each dose enzyme to 384 wen microplate (ProxiPlate-384 F Plus, 6008260) using multichannel pipette, prepared in Table 3. • d. Centrifuge at 1000 rpm • e. Add 2 μL/well cpd to 384 well microplate (ProxiPlate-384 F Plus, 6008260) using multichannel pipette, prepared in step a). • f. Centrifuge at 1000 rpm RT, 15 min. • g Start the assay by adding 10 uL/well substrate (prepared in Table 4) to the same 384 wen microplate using multichannel pipette. • h. Centrifuge at 1000 rpm. • i. Cover the assay plate and incubate for 60 min at 25° C. • j. Read on Envision 2104 for mP and plot the IC50s with mP values. • k. Data analysis: IC50s were determined based on a non-linear regression analysis of data collected.

cIAP1-BIR3 = target: T2, cIAP1-BIR3 (Homo sapiens, UniProt Q13490); experiment: cIAP1-BIR3 fluorescence polarization binding assay; conditions: FP, probe AbuRPFK-5FAM (SM5F) 5 nM, cIAP1-BIR3 15 nM, 60 min at 25° C.
T2 construct: cIAP1-BIR3; purchased Reaction Biology APT-11-370
Description: as §1, §2

cIAP2-BIR3 = target: T3, cIAP2-BIR3 (Homo sapiens, UniProt Q13489); experiment: cIAP2-BIR3 fluorescence polarization binding assay; conditions: FP, probe AbuRPFK-5FAM (SM5F) 5 nM, cIAP2-BIR3 80 nM, 60 min at 25° C.
T3 construct: cIAP2-BIR3; purchased Reaction Biology APT-11-372
Description: as §1, §2

T1 sequence (P98170 241-356 limits assumed): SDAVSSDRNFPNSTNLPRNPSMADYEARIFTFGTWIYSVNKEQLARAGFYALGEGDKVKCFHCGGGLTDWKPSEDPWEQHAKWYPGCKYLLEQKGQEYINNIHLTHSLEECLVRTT
T2 sequence (Q13490 253-363 limits assumed): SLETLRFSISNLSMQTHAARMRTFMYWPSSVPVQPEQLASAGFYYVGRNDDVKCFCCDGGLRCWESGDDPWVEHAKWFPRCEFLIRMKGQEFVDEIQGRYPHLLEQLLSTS
T3 sequence (Q13489 238-349 limits assumed): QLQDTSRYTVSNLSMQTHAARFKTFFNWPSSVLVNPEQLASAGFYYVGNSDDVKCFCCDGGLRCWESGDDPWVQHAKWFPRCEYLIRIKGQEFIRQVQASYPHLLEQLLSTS

Compound | IC50 (XIAP-BIR3) [µM] | IC50 (cIAP1-BIR3) [µM] | IC50 (cIAP2-BIR3) [µM]
CC[C@H](NC(=O)[C@H](C)NC)C(=O)N1CCC[C@H]1C(=O)N[C@@H]1CCCc2c(NC(=O)c3cccc4c3CCC[C@H]4NC(=O)[C@@H]3CCCN3C(=O)[C@H](CC)NC(=O)[C@H](C)NC)cccc21 [Compound VII-C, (2S)-1-[(2S)-2-[(2S)-2-(methylamino)propanamido]butanoyl]-N-[(1R)-5-[[(5R)-5-[(2S)-1-[(2S)-2-[(2S)-2-(methylamino)propanamido]butanoyl]pyrrolidine-2-amido]-5,6,7,8-tetrahydmnaphthalen-1-yl]carbamoyl]-1,2,3,4-tetrahydmnaphthalen-1-yl]pyrrolidine-2-carboxamide] | 0.01 to 0.1 | 0.001 to 0.01 | 0.01 to 0.1
CN[C@@H](C)C(=O)N[C@H](C(=O)N1C[C@@H](O)C[C@H]1C(=O)N[C@@H]1CCCc2c(-c3cccc4c3CCC[C@H]4NC(=O)[C@@H]3C[C@H](O)CN3C(=O)[C@@H](NC(=O)[C@H](C)NC)C3CCCCC3)cccc21)C1CCCCC1 [Compound V-L, (2S,4S)-1-[(2S)-2-cyclohexyl-2-[(2S)-2-(methylamino)propanamido]acetyl]-N-[(5R,5′R)-5′-[(2S,4S)-1-[(2S)-2-cyclohexyl-2-[(2S)-2-(methylamino)propanamido]acetyl]-4-hydroxypyrrolidine-2-amido]-5H,5′H,6H,6′H,7H,7′H,8H,8′H-[1,1′-binaphthalen]-5-yl]-4-hydroxypyrrolidine-2-carboxamide] | 0.01 to 0.1 | 0.001 to 0.01 | 0.01 to 0.1
CN[C@@H](C)C(=O)N[C@H](C(=O)N1CCC[C@H]1C(=O)N[C@@H]1CCCc2c(NC(=O)c3cccc4c3CCC[C@H]4NC(=O)[C@@H]3CCCN3C(=O)[C@@H](NC(=O)[C@H](C)NC)C(C)C)cccc21)C(C)C [VII-A, (2S)-1-[(2S)-3-methyl-2-[(2S)-2-(methylamino)propanamido]butanoyl]-N-[(1R)-5-[[(5R)-5-[(2S)-1-[(2S)-3-methyl-2-[(2S)-2-(methylamino)propanamido]butanoyl]pyrrolidine-2-amido]-5,6,7,8-tetrahydronaphthalen-1-yl]carbamoyl]-1,2,3,4-tetrahydronaphthalen-1-yl]pyrrolidine-2-carboxamide] | 0.01 to 0.1 | 0.001 to 0.01 | 0.001 to 0.01
CN[C@@H](C)C(=O)N[C@H](C(=O)N1CCC[C@H]1C(=O)N[C@@H]1CCc2c(-c3cccc4c3CC[C@H]4NC(=O)[C@@H]3CCCN3C(=O)[C@@H](NC(=O)[C@H](C)NC)C3CCCCC3)cccc21)C1CCCCC1 [Compound V, (2S)-1-[(2S)-2-cyclohexyl-2-[(2S)-2-(methylamino)propanamido]acetyl]-N-[(1R,1′R)-1′-[(2S)-1-[(2S)-2-cyclohexyl-2-[(2S)-2-(methylamino)propanamido]acetyl]pyrrolidine-2-amido]-1H,1′H,2H,2′H,3H,3′H-[4,4′-biinden]-1-yl]pyrrolidine-2-carboxamide] | 0.01 to 0.1 | 0.001 to 0.01 | 0.01 to 0.1
CN[C@@H](C)C(=O)N[C@H](C(=O)N1CCC[C@H]1C(=O)N[C@@H]1CCCc2c(-c3ccc(-c4ccc(-c5cccc6c5CCC[C@H]6NC(=O)[C@@H]5CCCN5C(=O)[C@@H](NC(=O)[C@H](C)NC)C5CCCCC5)cc4)cc3)cccc21)C1CCCCC1 [Compound III-G, (S)-1-((S)-2-cyclohexyl-2-((S)-2-(methylamino)propanamido)acetyl)-N—((R)-5-(4′-((R)-5-((S)-1-((S)-2-cyclohexyl-2-((S)-2-(methylamino)propanamido)acetyl)pyrrolidine-2-carboxamido)-5,6,7,8-tetrahydronaphthalen-1-yl)-[1,1′-biphenyl]-4-yl)-1,2,3,4-tetrahydronaphthalen-1-yl)pyrrolidine-2-carboxamide] | 0.1 to 1 | 0.001 to 0.01 | 0.01 to 0.1
CN[C@@H](C)C(=O)N[C@H](C(=O)N1CCC[C@H]1C(=O)N[C@@H]1CCCc2c(Nc3cccc4c3CCC[C@H]4NC(=O)[C@@H]3CCCN3C(=O)[C@@H](NC(=O)[C@H](C)NC)C3CCOCC3)cccc21)C1CCOCC1 [Compound VI-A, (S)-1-((S)-2-((S)-2-(methylamino)propanamido)-2-(tetrahydro-2H-pyran-4-yl)acetyl)-N—((R)-5-(((R)-5-((S)-1-((S)-2-((S)-2-(methylamino)propanamido)-2-(tetrahydro-2H-pyran-4-yl)acetyl)pyrrolidine-2-carboxamido)-5,6,7,8-tetrahydronaphthalen-1-yl)amino)-1,2,3,4-tetrahydronaphthalen-1-yl)pyrrolidine-2-carboxamide] | 0.01 to 0.1 | 0.001 to 0.01 | 0.01 to 0.1
CN[C@@H](C)C(=O)N[C@H](C(=O)N1CCC[C@H]1C(=O)N[C@@H]1CCCc2c(-c3cccc4c3CCC[C@H]4NC(=O)[C@@H]3CCCN3C(=O)[C@@H](NC(=O)[C@H](C)NC)C3CCCCC3)cccc21)C1CCCCC1 [Compound V-N, (2S)-1-[(2S)-2-cyclohexyl-2-[(2S)-2-(methylamino)propanamido]acetyl]-N-[(1R)-5-[(5R)-5-[(2S)-1-[(2S)-2-cyclohexyl-2-[(2S)-2-(methylamino)propanamido]acetyl]pyrolidine-2-amido]-5,6,7,8-tetrahydronaphthalen-1-yl]-1,2,3,4-tetrahydronaphthalen-1-yl]pyrrolidine-2-carboxamide] | 0.001 to 0.01 | 0.001 to 0.01 | 0.001 to 0.01
CN[C@@H](C)C(=O)N[C@H](C(=O)N1CCC[C@H]1C(=O)N[C@@H]1CCCc2c1cccc2N1CCN(c2cccc3c2CCC[C@H]3NC(=O)[C@@H]2CCCN2C(=O)[C@@H](NC(=O)[C@H](C)NC)C2CCCCC2)CC1)C1CCCCC1 [Compound VIII-C, (2S,2'S)—N,N′-((1R,1′R)-piperazine-1,4-diylbis(1,2,3,4-tetrahydronaphthalene-5,1-diyl))bis(1-((S)-2-cyclohexyl-2-((S)-2-(methylamino)propanamido)acetyl)pyrrolidine-2-carboxamide)] | – | 0.001 to 0.01 | –
CN[C@@H](C)C(=O)N[C@H](C(=O)N1CCC[C@H]1C(=O)N[C@@H]1CCCc2c1cccc2N1CCN(c2cccc3c2CCC[C@H]3NC(=O)[C@@H]2CCCN2C(=O)[C@@H](NC(=O)[C@H](C)NC)C(C)(C)C)CC1)C(C)(C)C [Compound VIII-D, (2S,2′S)—N,N′-((1R,1′R)-piperazine-1,4-diylbis(1,2,3,4-tetrahydronaphthalene-5,1-diyl))bis(1-((S)-3,3-dimethyl-2-((S)-2-(methylamino)propanamido)butanoyl)pyrolidine-2-carboxamide)] | – | 0.001 to 0.01 | –
CN[C@@H](C)C(=O)N[C@H](C(=O)N1CCC[C@H]1C(=O)N[C@@H]1CCCc2c1cccc2N1CCN(c2cccc3c2CCC[C@H]3NC(=O)[C@@H]2CCCN2C(=O)[C@@H](NC(=O)[C@H](C)NC)C(C)C)CC1)C(C)C [VIII-F, (2S,2'S)—N,N′-((1R,1′R)-piperazine-1,4-diylbis(1,2,3,4-tetrahydonaphthalene-5,1-diyl))bis(1-(methyl-L-alanyl-L-valyl)pyrrolidine-2-carboxamide)] | – | 0.001 to 0.01 | –
CC[C@H](NC(=O)[C@H](C)NC)C(=O)N1CCC[C@H]1C(=O)N[C@@H]1CCCc2c1cccc2N1CCN(c2cccc3c2CCC[C@H]3NC(=O)[C@@H]2CCCN2C(=O)[C@H](CC)NC(=O)[C@H](C)NC)CC1 [VIII-E, (2S,2'S)—N,N′-((1R,1′R)-piperazine-1,4-diylbis(1,2,3,4-tetrahydonaphthalene-5,1-diyl))bis(1-((S)-2-((S)-2-(methylamino)propanamido)butanoyl)pyrrolidine-2-carboxamide)] | – | 0.001 to 0.01 | –
